According to patent US12715851B2, “4′-substituted analogues of fisetin and their use in the treatment of cancer” (Stellenbosch University, priority 2020, dated 2026):
“Also recorded” adds a separate entry of the source.

How the values were obtained:
[1] = test system: A549; assay: Cell cycle distribution, propidium iodide flow cytometry; assay type: cell-based, human; settings: 10 & 20 μM, 48 h
Experimental: (§1) To examine the effect of Fisetin analogues on cell cycle regulation, cells were treated with different concentrations of Fisetin analogues (5, 10 & 20 μM) for 48 h, then stained with propidium iodide and subjected to flow cytometry. All three of the tested Fisetin analogues induced G2/M phase cell cycle arrest in A549 (FIGS. 5A-5C) and H1299 human lung cancer cells (FIGS. 5D-5F).

[2] = test system: H1299 human lung cancer cells; assay: as above; assay type: cell-based; settings: 48 h; for G2/M phase arrest: H1299
Experimental: as §1

[3] = test system: H1299 cells; assay: Western blot of signalling, cell cycle and apoptosis markers; assay type: cell-based, human
From the text: (§2) Similarly, in H1299 cells analogue 3a induced a 11.7 to 14.9% cell death (FIG. 4D right) compared to 3.8% in control cells. Analogue 3c (FIG. 4E right) and analogue 3e (FIG. 4F right) induced cell death of 8.2 to 15.1% and 8.8 to 16.6% respectively. For western blot experiments, two concentrations were used, i.e. the IC50 concentration and the next higher concentration utilized for cell proliferation for each cell line.
In H1299 cells (FIG. 4H), the higher concentrations of all three Fisetin analogues decreased the expression of pErk1/2. […]
The decreased expression of these proteins explains the decreased cell proliferation in both A549 and H1299 cells. […] Consistent with A549 data, all three the Fisetin analogues decreased the expression of anti-apoptotic protein Bcl-2 at both the concentrations. In H1299 cells, all the analogues increased cleaved Caspase-3 compared to control untreated cells. Thus, modulation of apoptosis regulatory proteins has caused apoptosis in both A549 and H1299 cells by the tested Fisetin analogues.

[4] = test system: A549 cells; assay: as above; assay type: cell-based, human; settings: IC50 concentration and 20 μM
From the text: as §2
The expression of pro-oncogenic signalling molecules, which are involved in proliferation and survival of cancer cells, were evaluated.
The effect of the Fisetin analogues on molecular markers of apoptosis was assessed.

[5] = test system: H1299 lung cancer cells; assay: Trypan blue cell exclusion assay, cell proliferation and death; assay type: cell-based; settings: Homo sapiens, NCI-H1299, H1299, 48 h, read-out: IC50 concentration
Experimental: (§3) To evaluate the effect of Fisetin analogues 3a, 3c and 3e on cell proliferation and death of human lung cancer cells, trypan blue cell exclusion assays were performed. A549 and H1299 cancer cells were treated with different concentrations of three selected Fisetin analogues for 48 h. The Fisetin analogues decreased the viability of cells and caused cell death in both the cell lines in a concentration dependent fashion. A549 and H1299 cells were treated with 5, 10 and 20 μM of Fisetin analogues for 48 h. All three analogues decreased cell proliferation and induced cell death.

[6] = test system: A549 cells; assay: as above; assay type: cell-based; settings: Homo sapiens, A549, 48 h, read-out: IC50 concentration
Experimental: as §3

[7] = test system: H1299 cancer cells; assay: Apoptosis assay; assay type: cell-based, human; settings: 48 h
From the text: [Worded in the source for another cell line; used here, by the source, with some conditions changed.] (§4) In A549, analogue 3a induced 8.2 and 11.2% apoptosis, analogue 3c induced 13.4 and 17.2% apoptosis, and analogue 3e induced 10.6 to 19.5% apoptosis compared to 4.7% in control cells (FIG. 6A).

[8] = test system: A549; assay: Apoptosis assay; assay type: cell-based, human; settings: 48 h, control cells 4.7%
From the text: as §4

[9] = test system: A549 lung cancer cell line; assay: MTT cell proliferation assay, cytotoxicity after 48 h treatment; assay type: cell-based, human; settings: for variation in cytotoxicity with A-ring substitution: A549, 4′-Br analogues; for activity against lung cancer cell lines compared with the parent Fisetin: A549 and/or H1299
Experimental: These 4′-substituted Fisetin analogues were initially screened for cytotoxicity against the A549 lung cancer cell line following a 48 h treatment period. Cytotoxicity IC50's were quantified using the MTT cell proliferation assay. The compounds were not found to interfere with the assay by causing an increase in background absorbance, no correlation was found between the lipophilicity and cytotoxicity at this position, and the substituent size was also not found to be important.

[10] = test system: H1299 lung cancer cells; assay: Cytotoxicity / cell viability of H1299 cells; assay type: cell-based, human; settings: 4′-Br analogues
From the text: Analogues were also synthesised to all contain Br in the B-ring 4′-position, and in which the A-ring substitution pattern alone was varied. […] Based on the strong activity of analogue 3c, it was selected together with analogues 3a and 3e for further mechanistic evaluation in lung cancer cells.

[11] = cited from earlier work

O=c1c(O)c(-c2ccc(Br)cc2)oc2ccccc12 [analogue 3a, 4′-Bromo-3-hydroxyflavone]
G2/M phase arrest [1]: induced G2/M phase arrest in both the cell lines significantly | G2/M phase arrest ([2]; 10 & 20 μM): induced G2/M phase arrest in both the cell lines significantly | Phospho-Cdc-2 expression ([3]; IC50 concentration and 10 μM): marginally decreased | Total Cdc-2 ([3]; IC50 concentration and 10 μM): marginally affected by higher concentration | expression of Bax ([3]; IC50 concentration and 10 μM): slightly higher | expression of phospho Akt ([3]; IC50 concentration and 10 μM): did not affect the expression of phospho and total Akt at both the concentrations | expression of phospho-EGFR ([3]; IC50 concentration and 10 μM): lower concentration of analogue 3a did not affect the expression of both phospho and total EGFR; also recorded: higher concentration of analogue 3a significantly decreased the expression of both phospho and total EGFR | expression of total Akt ([3]; IC50 concentration and 10 μM): did not affect the expression of phospho and total Akt at both the concentrations | expression of total EGFR ([3]; IC50 concentration and 10 μM): lower concentration of analogue 3a did not affect the expression of both phospho and total EGFR; also recorded: higher concentration of analogue 3a significantly decreased the expression of both phospho and total EGFR | cleaved caspase-3 [4]: increased the cleavage of caspase-3 significantly | expression of p21 [4]: increased the expression of p21 marginally at both the concentrations | expression of phospho Cdc-2 [4]: slightly decreased the phospho form of Cdc-2 at higher concentration | expression of phospho-Erk1/2 [4]: decreased the expression of phospho-Erk1/2 significantly at both the concentrations | expression of pro-apoptotic protein Bax [4]: slightly increased the expression of pro-apoptotic protein Bax | total Stat-3 expression [4]: not affected | total form of Akt [4]: slightly downregulated | total form of Erk1/2 [4]: not affected | IC50 [5]: 4.5 µM | IC50 [6]: 11.9 µM | apoptosis ([7]; IC50 concentration): 13.2% | apoptosis ([7]; higher concentration 10 μM): 17.8% | apoptosis ([8]; IC50 concentration): 8.2% | apoptosis ([8]; higher concentration 20 μM): 11.2%

O=c1c(O)c(-c2ccc(Br)cc2)oc2cccc(O)c12 [analogue 3f, 4′-Bromo-3,5-dihydroxyflavone]
variation in cytotoxicity with A-ring substitution [9]: little variation in cytotoxicity | variation in cytotoxicity with A-ring substitution [10]: little variation in cytotoxicity

O=c1c(O)c(-c2ccc(Cl)cc2)oc2cc(O)ccc12 [analogue 3g, 4′-Chloro-3,7-dihydroxyflavone]
cytotoxicity, in words ([9]; A549, MTT, 48 h): particularly active | activity against lung cancer cell lines compared with the parent Fisetin [9]: substantially more active

CS(=O)(=O)c1ccc(-c2oc3cc(O)ccc3c(=O)c2O)cc1 [analogue 3p, 4′-Methylsulfone-3,7-dihydroxyflavone]
cytotoxicity, in words ([9]; A549, MTT, 48 h): particularly active | activity against lung cancer cell lines compared with the parent Fisetin [9]: substantially more active

COCOc1ccc2oc(-c3ccc(Br)cc3)c(O)c(=O)c2c1 [analogue 3d, 4′-Bromo-3-hydroxy-6-methoxymethoxyflavone]
variation in cytotoxicity with A-ring substitution [9]: little variation in cytotoxicity | variation in cytotoxicity with A-ring substitution [10]: little variation in cytotoxicity

O=c1c(O)c(-c2ccc(Br)cc2)oc2ccc(O)cc12 [analogue 3e, 4′-Bromo-3,6-dihydroxyflavone]
G2/M phase arrest [1]: induced G2/M phase arrest in both the cell lines significantly | S-phase arrest ([2]; 20 μM, cell line not given): induced S-phase arrest | G2/M phase arrest ([2]; 5 μM): induced G2/M phase arrest | G2/M phase arrest ([2]; 10 & 20 μM): induced G2/M phase arrest in both the cell lines significantly | Phospho-Cdc-2 expression ([3]; IC50 concentration and 10 μM): both concentrations of analogue 3e decreased the expression of phospho-Cdc-2 | Total Cdc-2 ([3]; IC50 concentration and 10 μM): no effect | expression of Bax ([3]; IC50 concentration and 10 μM): increased the expression of pro-apoptotic protein Bax | expression of phospho Akt ([3]; IC50 concentration and 10 μM): significantly decrease the phospho Akt | expression of phospho-EGFR ([3]; IC50 concentration and 10 μM): significantly decreased the expression of phospho-EGFR | expression of total Akt ([3]; IC50 concentration and 10 μM): did not affect the total Akt | expression of total EGFR ([3]; IC50 concentration and 10 μM): did not affect the expression levels of total EGFR | expression of total Erk1/2 ([3]; IC50 concentration and 10 μM): decreased the expression of total Erk1/2 significantly | expression of total Stat-3 ([3]; higher concentration (10 μM)): decreased the expression of total Stat-3 at higher concentrations | variation in cytotoxicity with A-ring substitution [9]: little variation in cytotoxicity | cleaved caspase-3 [4]: both the concentrations of analogue 3e increased the cleaved caspase-3 marginally | expression of p21 [4]: increased the p21 expression to a much higher level at both the concentrations | expression of phospho Cdc-2 [4]: IC50 concentration decreased the expression to some extent; also recorded: the higher concentrations decreased the phospho-Cdc-2 expression significantly | expression of phospho-Erk1/2 [4]: decreased the expression of phospho-Erk1/2 significantly at both the concentrations | expression of phospho-Stat-3 [4]: completely abolished the expression of p-Stat-3 | expression of pro-apoptotic protein Bax [4]: increased the expression of Bax with much higher potential | total Stat-3 expression [4]: significantly decreased the expression of total Stat-3 | total form of Akt [4]: decreased the expression of total Akt at both the concentrations | total form of Erk1/2 [4]: not affected | IC50 [5]: 3.1 µM | IC50 [6]: 12.3 µM | apoptosis ([7]; IC50 concentration): 12.1% | apoptosis ([7]; higher concentration 10 μM): 19.5% | apoptosis ([8]; IC50 concentration): 10.6% | apoptosis ([8]; higher concentration 20 μM): 19.5% | variation in cytotoxicity with A-ring substitution [10]: little variation in cytotoxicity

COc1ccc(-c2oc3cc(O)ccc3c(=O)c2O)cc1 [analogue 3m, 4′-Methoxy-3,7-dihydroxyflavone]
activity compared to that predicted by the para-Hammett constant ([9]; A549, MTT, 48 h): enhanced activity compared to that predicted by the para-Hammett constant

O=c1c(O)c(-c2ccc(C(F)(F)F)cc2)oc2cc(O)ccc12 [analogue 3n, 4′-Trifluoromethyl-3,7-dihydroxyflavone]
cytotoxicity, in words ([9]; A549, MTT, 48 h): particularly active | activity against lung cancer cell lines compared with the parent Fisetin [9]: substantially more active

COCOc1ccc2c(=O)c(O)c(-c3ccc(Br)cc3)oc2c1 [analogue 3b, 4′-Bromo-3-hydroxy-7-methoxymethoxyflavone]
variation in cytotoxicity with A-ring substitution [9]: little variation in cytotoxicity | variation in cytotoxicity with A-ring substitution [10]: little variation in cytotoxicity

O=c1c(O)c(-c2ccc(O)c(O)c2)oc2cc(O)cc(O)c12 [quercetin]
pKa of the 4′-hydroxyl group [11]: ~ 9.4 | pKa of the 7-hydroxyl group ([11]; most acidic position): ~ 7.3
